Results on 14 compounds are retold here after ChEMBL document CHEMBL4715909, “Identification of Plasmodium falciparum heat shock 90 inhibitors via molecular docking” (Bioorg Med Chem Lett, 2021).

The EC50 is the concentration that produces a half-maximal response.

For the first data set, the system named is Plasmodium falciparum. Put plainly: Antimalarial activity against Plasmodium falciparum 3D7 assessed as reduction in parasitic growth. The data set is classed as functional, organism-based.
Consider `Cc1c(C(=O)Nc2ccc3ccc(=O)oc3c2)nnn1-c1ccc2noc(-c3ccccc3)c2c1`, for which the concentration for a half-maximal effect (EC50) worked out at 15.7 µM.

Turning to `O=C(c1cccc(S(=O)(=O)N2CCc3ccccc32)c1)N1CCC(c2nnc3ccccn23)CC1`, the half-maximal effective concentration (EC50) is more than 18 µM.

With `c1ccc(-c2nnn3c2nc(N2CCN(Cc4ccc5c(c4)OCO5)CC2)c2ccccc23)cc1`, the EC50 came to 17 µM.

Consider `O=C(c1cccc(Nc2nc3ccccc3n3nnnc23)c1)N1CCc2ccccc2C1`, for which the EC50 came to 3.44 µM.

Regarding `Cc1cccc(-c2nc(C3CCN(C(=O)[C@H]4CC(=O)N(c5ccc(C)c(C)c5)C4)CC3)no2)c1`, the EC50 stood at 12.1 µM.

Turning to `O=C(NCc1ccc2c(c1)OCO2)C1CCN(c2ncnc3onc(-c4cccc(F)c4)c23)CC1`, the concentration giving a half-maximal response (EC50) turned out to be 0.98 µM.

Take `Cc1nnc(-c2nn(-c3ccc(C(=O)N4CCC[C@H](C)C4)cc3)c(-c3ccc(F)cc3)c2C)o1`: the EC50 stood at 5.5 µM.

For the compound `O=C(N[C@H]1CCc2ccccc21)C1CCN(c2ncccc2-c2nc(-c3ccccc3)no2)CC1`, the EC50 was 1.11 µM.

In the case of `O=C(CCn1c(=O)c2ccccc2n(Cc2ccccc2F)c1=O)N1CCc2ccccc2C1`, the EC50 was more than 18 µM.

In the case of `O=C1CN(C(=O)CN2C[C@H](C(=O)N3CCCCC3)Oc3ccccc32)c2ccccc2N1`, the EC50 is more than 18 µM.

As for `O=C(Cc1ccc2c(c1)OCO2)N1CCC(c2nc(=O)c3nnn(Cc4ccccc4F)c3[nH]2)CC1`, the concentration giving a half-maximal response (EC50) amounted to 12.7 µM.

Regarding `O=C(c1ccc2noc(-c3ccccc3)c2c1)N1CCC[C@H](c2nnc3ccccn23)C1`, the concentration for a half-maximal effect (EC50) was more than 18 µM.

In another data set the test system is BJ. Nature of the data set: Cytotoxicity against human BJ cells assessed as reduction in cell viability. The data set is classed as cell-based.
As for `Cc1c(C(=O)Nc2ccc3ccc(=O)oc3c2)nnn1-c1ccc2noc(-c3ccccc3)c2c1`, the 50% effective concentration (EC50) was more than 24 µM.

Take `O=C(c1cccc(S(=O)(=O)N2CCc3ccccc32)c1)N1CCC(c2nnc3ccccn23)CC1`: the 50% effective concentration (EC50) was more than 24 µM.

Turning to `c1ccc(-c2nnn3c2nc(N2CCN(Cc4ccc5c(c4)OCO5)CC2)c2ccccc23)cc1`, the concentration for a half-maximal effect (EC50) is more than 24 µM.

Take `O=C(c1cccc(Nc2nc3ccccc3n3nnnc23)c1)N1CCc2ccccc2C1`: the EC50 is more than 24 µM.

As for `Cc1cccc(-c2nc(C3CCN(C(=O)[C@H]4CC(=O)N(c5ccc(C)c(C)c5)C4)CC3)no2)c1`, the EC50 was more than 24 µM.

Consider `O=C(NCc1ccc2c(c1)OCO2)C1CCN(c2ncnc3onc(-c4cccc(F)c4)c23)CC1`, for which the 50% effective concentration (EC50) is more than 24 µM.

As to `Cc1nnc(-c2nn(-c3ccc(C(=O)N4CCC[C@H](C)C4)cc3)c(-c3ccc(F)cc3)c2C)o1`, the concentration giving a half-maximal response (EC50) is more than 24 µM.

Turning to `O=C(N[C@H]1CCc2ccccc21)C1CCN(c2ncccc2-c2nc(-c3ccccc3)no2)CC1`, the EC50 is more than 24 µM.

Turning to `O=C(CCn1c(=O)c2ccccc2n(Cc2ccccc2F)c1=O)N1CCc2ccccc2C1`, the half-maximal effective concentration (EC50) was more than 24 µM.

Regarding `O=C1CN(C(=O)CN2C[C@H](C(=O)N3CCCCC3)Oc3ccccc32)c2ccccc2N1`, the 50% effective concentration (EC50) is more than 24 µM.

Regarding `O=C(Cc1ccc2c(c1)OCO2)N1CCC(c2nc(=O)c3nnn(Cc4ccccc4F)c3[nH]2)CC1`, the half-maximal effective concentration (EC50) was more than 24 µM.

As for `O=C(c1ccc2noc(-c3ccccc3)c2c1)N1CCC[C@H](c2nnc3ccccn23)C1`, the EC50 was more than 24 µM.

Another data set deals with Plasmodium falciparum. Put plainly: Antimalarial activity against Plasmodium falciparum 3D7 assessed as reduction in parasitic growth at 16 uM relative to control. The data set is classed as functional. Set-up: scale not given: the % may be the effect or the level left.
On to `O[C@@H](c1cc(C(F)(F)F)nc2c(C(F)(F)F)cccc12)[C@H]1CCCCN1` [(S,R)-MEFLOQUINE], for which the Activity is 100%.

For the next data set, the system named is BJ. Put plainly: Cytotoxicity against human BJ cells assessed as reduction in cell viability at 58 uM by relative to control. The data set is classed as cell-based.
Regarding `CC(=O)[C@]1(O)Cc2c(O)c3c(c(O)c2[C@@H](O[C@H]2C[C@H](N)[C@H](O)[C@H](C)O2)C1)C(=O)c1ccccc1C3=O` [IDARUBICIN], the Activity was 100%.
